Assays:
[1] = xn = mol fraction of the nth substance listed; details: 101 kPa, Liquid, Vibrating tube method
[2] = 101.33 kPa, Liquid, Vibrating tube method

CCCN [propan-1-amine] + c1ccccc1
mass density [kg/m3], [1]
Details	x1 = 0.0079	x1 = 0.0186	x1 = 0.028	x1 = 0.0366	x1 = 0.047	x1 = 0.0579	x1 = 0.0659	x1 = 0.0759	x1 = 0.0844
303.15 K	867.07	865.41	863.91	862.58	860.86	859.18	857.86	856.37	854.97
313.15 K	856.39	854.75	853.34	852.02	850.44	848.78	847.56	846.03	844.73

CCCCN(CCCC)CCCC [tributylamine]
[2]
Details	mass density [kg/m3]
303.15 K	770.21
313.15 K	763.11

CCCCN(CCCC)CCCC [tributylamine] + C1CCCCC1
mass density [kg/m3], [1]
Details	x1 = 0.0103	x1 = 0.0216	x1 = 0.0318	x1 = 0.0402	x1 = 0.0516	x1 = 0.0598	x1 = 0.0709	x1 = 0.0807	x1 = 0.0861
303.15 K	768.92	768.75	768.65	768.57	768.46	768.38	768.26	768.18	768.14
313.15 K	759.38	759.25	759.17	759.09	758.99	758.97	758.92	758.91	758.99

CCCCN(CCCC)CCCC [tributylamine] + c1ccccc1
mass density [kg/m3], [1]
Details	x1 = 0.0102	x1 = 0.0206	x1 = 0.0302	x1 = 0.0404	x1 = 0.0499	x1 = 0.0596	x1 = 0.0698	x1 = 0.0796	x1 = 0.0874
303.15 K	865.38	862.54	860.05	857.48	855.12	852.77	850.4	848.22	846.53
313.15 K	854.76	852.03	849.61	847.12	844.87	842.65	840.38	838.28	836.65

CCN(CC)CC [triethylamine]
[2]
Details	mass density [kg/m3]
303.15 K	718.44
313.15 K	709.05

CCN(CC)CC [triethylamine] + C1CCCCC1
mass density [kg/m3], [1]
Details	x1 = 0.0102	x1 = 0.0192	x1 = 0.0299	x1 = 0.0422	x1 = 0.0498	x1 = 0.0618	x1 = 0.0712	x1 = 0.0799	x1 = 0.0895	x1 = 0.0995
303.15 K	768.28	767.5	766.58	765.57	764.97	764.04	763.35	762.72	762.05	761.36
313.15 K	758.66	757.93	757.05	756.07	755.48	754.54	753.86	753.22	752.62	751.88

CCN(CC)CC [triethylamine] + c1ccccc1
mass density [kg/m3], [1]
Details	x1 = 0.0102	x1 = 0.0209	x1 = 0.0311	x1 = 0.0395	x1 = 0.0501	x1 = 0.0618	x1 = 0.0712	x1 = 0.0804	x1 = 0.0919	x1 = 0.1
303.15 K	865.85	863.38	861.03	859.07	856.75	854.1	851.95	850	847.45	845.76
313.15 K	855.14	852.62	850.24	848.31	845.93	843.31	841.23	839.27	836.79	835.08

CCCN(CCC)CCC [tripropylamine]
[2]
Details	mass density [kg/m3]
303.15 K	749.15
313.15 K	740.41

CCCN(CCC)CCC [tripropylamine] + C1CCCCC1
mass density [kg/m3], [1]
Details	x1 = 0.0109	x1 = 0.02	x1 = 0.0305	x1 = 0.0406	x1 = 0.0511	x1 = 0.0596	x1 = 0.0693	x1 = 0.0787	x1 = 0.0878
303.15 K	768.54	768.11	767.6	767.14	766.65	766.35	765.93	765.54	765.16
313.15 K	758.99	758.57	758.14	757.71	757.28	756.93	756.56	756.18	755.84

CCCN(CCC)CCC [tripropylamine] + c1ccccc1
mass density [kg/m3], [1]
Details	x1 = 0.0104	x1 = 0.0206	x1 = 0.0307	x1 = 0.0402	x1 = 0.0497	x1 = 0.0596	x1 = 0.0693	x1 = 0.0788	x1 = 0.0889
303.15 K	865.5	862.82	860.21	857.87	855.54	853.15	850.88	848.69	846.42
313.15 K	854.85	852.24	849.71	847.43	845.18	842.85	840.66	838.55	836.35
